Two molecules from article PMC3273674 (Biochimica et Biophysica Acta, 2011) can be followed below.

Where no end group is shown, it is not given here.

The test system of the assay is dsDNA ([…]). Description: DNA binding by fluorescence intercalator displacement. Conditions: C50 normalized compared to BF2.

Regarding KVLRDNIQGWTKPAIRRLARRG [DesHDAP3], the “Relative C50” value worked out at 1.09.

In the case of `CC(C)C[C@H](NC(=O)CNC(=O)[C@H](C)NC(=O)[C@H](CCCNC(=N)N)NC(=O)[C@H](CO)NC(=O)[C@H](CO)NC(=O)[C@H](CCCNC(=N)N)NC(=O)[C@@H](N)[C@@H](C)O)C(=O)N[C@@H](CCC(N)=O)C(=O)N[C@@H](Cc1c[nH]c2ccccc12)C(=O)N1CCC[C@H]1C(=O)N[C@H](C(=O)NCC(=O)N[C@@H](CCCNC(=N)N)C(=O)N[C@H](C(=O)N[C@@H](Cc1c[nH]cn1)C(=O)N[C@@H](CCCNC(=N)N)C(=O)N[C@@H](CC(C)C)C(=O)N[C@@H](CC(C)C)C(=O)N[C@@H](CCCNC(=N)N)C(=O)N[C@@H](CCCCN)C(=O)O)C(C)C)C(C)C` [BF2], the “Relative C50” value is on record as 1.
